From paper PMC7213079, “Hit Identification of New Potent PqsR Antagonists as Inhibitors of Quorum Sensing in Planktonic and Biofilm Grown Pseudomonas aeruginosa” (Frontiers in Chemistry, 2020) come the findings set out here.

The subject of one test is PA14 mCTX::PpqsA-lux. The experiment in a line: PpqsA-lux bioreporter assay, strain PA14. The test is classed as cell-based, Pseudomonas aeruginosa. The conditions noted are these: Pseudomonas aeruginosa, PA14, read-out: IC50 PA14. The source says: To inform the structural variation of 7, crystal structures with the endogenous ligand [4-hydroxy-2-heptylquinoline (NHQ)] and the inhibitor M64 were used (Ilangovan et al., [2013]; Kitao et al., [2018]). The PqsR LBD is dominated by lipophilic interactions, therefore the current SAR exploration mainly focused on varying the aromatic tail substituents and examining the effect of 8-position substitution. The rationale for these modifications was primarily based on molecular docking studies that provided insights into the mode of binding of 7 and approaches intended to improve potency. The substituent at the para- position of the aromatic ring appeared to be crucial for biological activity due to the vital π-π stacking interaction of this group with Tyr^258. […] These strains emit light upon activation of PqsR by the endogenous production of these signal molecules. […] The results of the SAR in this assay highlight the importance of testing any prospective anti-virulence strategy on multiple genetically distinct P. aeruginosa strains as a means to reduce the chance of failure at both pre-clinical and clinical stages (Freschi et al., [2015]). […]
(§1) PA14 mCTX::PpqsA-lux PA14 with chromosomal mini-CTX::PpqsA-lux (Soukarieh insertion; TcR et al., 2018) […]
mini-CTX::PpqsA-lux R6K-based mini-CTX suicide plasmid for the (Diggle et chromosomal insertion of a PpqsA-lux al., 2007) transcriptional reporter fusion; TcR
Biosensor reporter assay:
Strains PA14 mCTX::PpqsA-lux and PAO1-L mCTX::PpqsA-lux were constructed using plasmid mini-CTX::PpqsA-lux as previously described (Diggle et al., 2007) and the assay was performed according to published procedures (Fletcher et al., 2007). For screening, the compounds were tested at 10 µM concentration which was prepared from 10 mM stock in DMSO. […]
(Reporter assays use an easily measured gene product as a stand-in for the process of interest.)

A further test relates to PAO1-L. The experiment in a line: Pyocyanin quantification, PAO1-L. As to conditions: compound at 3 x IC50, 16 h, compared with the control. The test is classed as cell-based, Pseudomonas aeruginosa.
Text: Pyocyanin is an important virulence factor for P. aeruginosa infections and in particular respiratory and urinary tract infections. Pyocyanin is a redox-active phenazine the production of which is regulated via PqsR and PqsE (Hall et al., [2016]; Rampioni et al., [2016]; Higgins et al., [2018]). Therefore, pyocyanin production serves as an indirect readout of the activity of the pqs QS system. […] Compound 40 reduced pyocyanin production by over 80% in both strains in agreement with bioreporter assay results.
Figure 4 Pyocyanin production by Pseudomonas aeruginosa after treatment with pqs inhibitors 8, 14, 23, 34, 25, 26, and 40. Quantification of pyocyanin production after inhibitor treatment at 3 × IC50 for both PAO1-L and PA14. The graph represents the average of three independent experiments carried out in triplicate (n = 9).
PAO1-L Wild type PAO1, Lausanne subline. B.
PAO1-L mCTX::PpqsA- PAO1-L with chromosomal mini-CTX::PpqsA-lux (Soukarieh lux insertion; TcR et al., 2018)
PA14 Wild type UCBPP-PA14 (Rahme et
as §1
Pyocyanin quantification: […]
Pyocyanin pigment was extracted into chloroform by mixing 7.5 mL of supernatant with 4.5 mL of chloroform. Pyocyanin w as further extracted into 1.5 mL of 0.2 M HCL which gave a pink/red solution and the absorbance was measured at 520 nm.

Regarding `Cn1c2ccccc2c2nnc(SCC(=O)Nc3ccc(Oc4ccccn4)cc3)nc21` [Compound 40, 2-((5-Methyl-5H-[1,2,4]triazino[5,6-b]indol-3-yl)thio)-N-(4-(pyridin-2-yloxy)phenyl)acetamide], the IC50 in the test with PA14 mCTX::PpqsA-lux was 340 ± 30 nM. Moreover, the “inhibition of pyocyanin production” value with PAO1-L is “over 80%”.

One may read the IC50 as the concentration that inhibits the measured activity by half.
